Entries after “also recorded” stand apart in the source; their conditions may differ.
Key:
Type in all cases: cell-based, human
[1] = test system: MCF-7 cells; experiment: MTT cytotoxicity assay on MCF-7 cells; conditions: for IC50: Homo sapiens, MCF7, MTT, 48 h incubation, IC50 ± SD, three experiments in triplicate; for Selectivity Index (SI): SI = IC50 on MCF-10 cells/IC50 on MCF-7 cells
Description: (§1) In this study, we wondered whether semi-synthetic compounds have potential antitumoral properties against BC. Therefore, we were interested in investigating the effect of the compounds on the MCF-7 cell line. Firstly, we studied the effect on cell viability using a colorimetric MTT assay, which was performed to quantify the cytotoxic activity; each compound was evaluated at different concentrations (500−100−20−4−0.8−0.16−0.032−0 µM). Daunorubicin was also used as a positive control for comparison with a reference drug. […] Although the MCF-10 cell line provides a useful selectivity model, it may not fully represent the varying sensitivities of different normal cell types within a multicellular organism. The SI value indicates the ratio of toxicity in mammalian host cells to that in a tumoral cell. The data obtained in response to different concentrations of compounds were used to calculate the IC50 and corresponding SI values, as shown in Table 1.
(§2) The American Type Culture Collection (Rockville, MD, USA) supplied the following experimental cell lines: MCF-7, a human breast cancer cell line, and MCF-10A, a human epithelial breast cell line (ATCC N° CRL-10317). Both cell lines were grown in DMEM-F12 medium containing 10% FCS, 100 U/mL penicillin, 100 μg/mL streptomycin, and 1 mM glutamine. The cells were seeded at a concentration of 100 μL per well at a plating density of 3 × 10^3 cells/well and incubated for 24 h at 37 °C under 5% humidified CO2 to enable attachment. The cells were then treated with varying concentrations of synthesized compounds for […] under the same conditions. The compound stock solution was prepared in DMSO, and the final concentration of DMSO was kept at 0.1%. Control cultures were treated with only 1% ethanol.
(§3) Cells from the MCF-7 and MCF-10 lines were seeded into 96-well plates at a density of 1 × 10^4 per well. After 24 h, the compounds were added at increasing concentrations (500–100–20-4–0.8–0.16–0.032–0 µM), and the cells were incubated at 37 °C in a humidified 5% CO2/95% air mixture for 48 h. Following incubation, the cells were washed twice with PBS, and 100 μL of 0.5 mg/mL MTT solution was added to each well. After 2 h of incubation, the MTT solution was removed, and the formazan crystals were dissolved in 50 μL of DMSO per well. Absorbance was then measured at 570 nm using a microplate ELISA reader. IC50 values, determined from three independent experiments conducted in triplicate, were calculated using SigmaPlot® software (version 11.0). The selectivity index (SI) of each compound in each cell line was determined by calculating the ratio of the IC50 values for MCF-10 and cancer cell lines. Compounds were considered selective if SI values were equal to or greater than 3 [46].

[2] = test system: MCF-10 cells; experiment: MTT cytotoxicity assay on non-tumoral MCF-10 cells; conditions: Homo sapiens, MCF10, 48 h incubation, IC50 ± SD, three experiments in triplicate
Description: as §1, §2, §3

[3] = test system: MCF-7 cells; experiment: Intracellular ROS generation (DCFH2-DA, flow cytometry); conditions: MCF-7, compounds at respective IC50, 24 h, versus control
Description: An increase in intracellular ROS may be one of the factors that contribute to the cytotoxicity of certain compounds in cancer cell lines. In fact, ROS and mitochondrial damage are often associated with the induction of cell death. […] DCF fluorescence was then measured by flow cytometry. The difference in the percentage of DCF-positive cells between treated and control cells was used to indicate an increase in intracellular ROS, as shown in Figure 4.
Reactive oxygen species (ROS) production was measured using flow cytometry. Cells were treated with compounds (each with respective IC50 values) for 24 h, with untreated cells serving as the negative control and cells treated with 1 µM daunorubicin as the positive control. Following the treatment, intracellular ROS levels were visualized after incubation with 2′,7′-dichlorodihydro-fluorescein diacetate (DCFH2-DA) at a final concentration of 10 μM for the last 30 min of the treatment period. After incubation, the cells were washed with PBS, trypsinized, and centrifuged, and the resulting pellet was resuspended in PBS and immediately examined by flow cytometry.
Figure 4 The effect of the compound’s treatment on intracellular ROS generation. Cells were treated with compounds (respective IC50 values for each compound for 24 h), and intracellular ROS levels were determined in the human cancer cell line MCF-7 by flow cytometry using dichloro-fluorescein diacetate (DCFH2-DA). * p < 0.05 versus control cells (Ctrl). The data represent the means ± S.D. of at least three experiments with triplicate samples.

[4] = test system: caspases-3/7 in MCF-7 cells; experiment: Caspase-Glo 3/7 assay; conditions: MCF-7, 50 μM, 24 h, versus control
Description: Since ROS levels were increased in the MCF-7 cancer cell line in response to the compounds, it is important to determine whether this effect is associated with the onset of apoptotic cell death. […] Cells were treated with the selected compounds at 50 μM for 24 h, incubated in situ with the Caspase-Glo 3/7 marker assay, and then analyzed in a luminometer.
The activity of caspase 3/7 in MCF-7 cells treated with the compounds was determined using a Caspase-Glo-3/7 Assay kit from Promega (UK). This assay is a homogenous and luminescent method that measures the activity of caspase-3 and -7, which are essential for apoptosis. MCF-7 cells (1 × 10^4 cells per well) were seeded in a 96-well plate and incubated overnight. The cells were then treated for 24 h with the compounds (50 µM) and a blank as a control. After treatment, the Caspase-Glo® 3/7 reagent was prepared according to the manufacturer’s instructions. Specifically, 100 μL of the reagent was added to 100 μL of culture medium containing the treated cells in each well, and the mixture was incubated for 1 h at room temperature in the dark. Luminescence was then measured using a luminometer (Berthold Sirius Single Tube Luminometer). The fold change in caspase activity was calculated by expressing the average luminescence of each treatment as a fold change with respect to the average luminescence of the negative control.
Figure 6 The effect of the compounds on caspases-3/7 activity in cells from the human breast cancer cell line MCF-7. Caspases-3/7 activity was determined in MCF-7 cells following treatment with the compounds (50 μM) for 24 h. The data are reported as the ratio of activity in treated cells vs. the control (1% ethanol), which were arbitrarily assigned a unitary value. * p < 0.05 versus control cells (Ctrl). The data are reported as the mean values ± S.D. of three different experiments with samples in triplicate.

Compound | IC50 [1] | Selectivity Index (SI) [1] | IC50 [2] | intracellular ROS levels (DCF fluorescence) [3] | caspases-3/7 activity [4]
COc1cc2c(cc1OC)[C@]1(C)CCC3C(C)(C)CCC[C@]3(C)C1=C2 (stereo partly drawn) [Compound 14c, (6aR,11bS)-8,9-Dimethoxy-4,4,6a,11b-tetramethyl-2,3,4,4a,5,6,6a,11b-octahydro-1H-benzo[a]fluorene] | 9 ± 2.8 µM | 44 | 393 ± 47.1 µM | induced oxidative stress; also recorded: significantly increased | activated caspases-3/7; also recorded: considerably enhanced
COc1ccc(/C=C2\C(C)=CCC3C(C)(C)CCC[C@]23C)cc1OC (stereo partly drawn) [Compound 13c, (4aS)-5-((E)-3,4-Dimethoxybenzylidene)-1,1,4a,6-tetramethyl-1,2,3,4,4a,5,8,8a-octahydronaphthalene] | 22.5 ± 2.6 µM | 6.0 | 135 ± 26.6 µM | significantly increased | considerably enhanced
